The text below walks through data of patent publication US12606594B2, “Heterotandem bicyclic peptide complexes” (BicycleTx Limited, priority 2019, dated 2026).

“And” between values parts separate entries of the source, which are not always exact repeats. Identical values can stand only once. Like-named read-outs stand apart in the source and are kept apart here. Starred links: 1 amine or outer side, 2 acyl side, 3 side chain; linkers in the order of their positions; H or OH if unused. Positions of bridges follow the written chain, without caps; N, C: chain ends. Non-standard residues stand in square brackets, D forms with d. Chains are numbered I, II in the order given. X1 = O=C(CCOCCOCCOCCN(CCOCCOCCOCCn1cc(CCC(=O)[*:2])nn1)CCOCCOCCOCCn1cc(CCC(=O)[*:3])nn1)[*:1]; TATA = O=C(CC[*:1])N1CN(C(=O)CC[*:2])CN(C(=O)CC[*:3])C1; d1Nal = N[C@H](Cc1cccc2ccccc12)C(=O)O; Hyp = O=C(O)[C@@H]1C[C@@H](O)CN1; hArg = N=C(N)NCCCC[C@H](N)C(=O)O; tBuAla = CC(C)(C)C[C@H](N)C(=O)O; Nle = CCCC[C@H](N)C(=O)O

Data set [1] is described as follows: CD137 reporter assay co-culture with tumor cells (Promega CD137 luciferase reporter, Jurkat cells). Type of data set: cell-based. Particulars: read-out: Emax (Fold Induction over background). On the procedure:
(§1) Culture medium, referred to as R1 media, is prepared by adding 1% FBS to RPMI-1640 (component of Promega kit CS196005). Serial dilutions of test articles in R1 are prepared in a sterile 96 well-plate. Add 25 μL per well of test articles or R1 (as a background control) to designated wells in a white cell culture plate. Tumor cells* are harvested and resuspended at a concentration of 400,000 cells/mL in R1 media. Twenty five (25) μL/well of tumor cells are added to the white cell culture plate. Jurkat cells (Promega kit CS196005, 0.5 mL) are thawed in the water bath and then added to 5 ml pre-warmed R1 media. Twenty five (25) […] of Jurkat cells are then added to the white cell culture plate. Incubate the cells and test articles for 6 h at 37° C., 5% CO2. At the end of 6 h, add 75 µL/well Bio-Glo™ reagent (Promega) and incubate for 10 min before reading luminescence in a plate reader (Clariostar, BMG). The fold change relative to cells alone (Jurkat cells+Cell line used in co-culture) is calculated and plotted in GraphPad Prism as log(agonist) vs response to determine EC50 (nM) and Fold Induction over background (Max).
(§2) The tumor cell types used in co-culture for EphA2 are A549, PC-3 and HT29.
For orientation: A reporter such as luciferase makes a cellular process visible.

The subject of another data set is CD137. The data set is described as above. In kind it is cell-based. On the procedure: as §1, §2
Data set [2] in a line: Pharmacokinetics of BCY13272 in SD rats. In kind it is in vivo. Particulars: 3.6 mg/kg IV infusion (15 min). On the procedure:
Male SD Rats were dosed with heterotandem complex BCY13272 formulated in 25 mM Histidine HCl, 10% sucrose pH 7 by IV bolus or IV infusion (15 minutes). Serial bleeding (about 80 μL blood/time point) was performed via submandibular or saphenous vein at each time point. All blood samples were immediately transferred into prechilled microcentrifuge tubes containing 2 μL K2-EDTA (0.5M) as anti-coagulant and placed on wet ice. Blood samples were immediately processed for plasma by centrifugation at approximately 4° C., 3000 g. The precipitant including internal standard was immediately added into the plasma, mixed well and centrifuged at 12,000 rpm, 4° C. for 10 minutes. The supernatant was transferred into pre-labeled polypropylene microcentrifuge tubes, and then quick-frozen over dry ice. The samples were stored at […] or below as needed until analysis. 7.5 μL of the supernatant samples were directly injected for LC-MS/MS analysis using an Orbitrap Q Exactive in positive ion mode to determine the concentrations of analyte. Plasma concentration versus time data were analyzed by non-compartmental approaches using the Phoenix WinNonlin 6.3 software program. CO, Cl, Vdss, T½, AUC(0-last), AUC(0-inf), MRT(0-last), MRT(0-inf) and graphs of plasma concentration versus time profile were reported.

As a reminder, the clearance is a measure of how efficiently the substance is removed, as volume per time. With “I: A[hArg]DC[Hyp]LVNPLCLEP[d1Nal]WTC-NH2 / II: Ac-C[tBuAla]PE[dK]PYCFADPY[Nle]CA-NH2 / III: Ac-C[tBuAla]PE[dK]PYCFADPY[Nle]CA-NH2 (linker I:4-I:11-I:18, II:1-II:8-II:15, III:1-III:8-III:15 via TATA (inferred); linker I:N-II:5-III:5 via X1 (inferred)) [BCY13272]”, the values for the fold induction in data set [1] (EphA2 cell line A549), in data set [1] (EphA2 cell line HT-29) and in data set [1] (EphA2 cell line PC-3) were 25.7, 36.5 and 44.2, respectively. In addition, the “Emax (Fold Induction over background)” value in the data set on CD137 (EphA2 cell line A549) was 23.6 and 30.2; in the data set with CD137 (EphA2 cell line HT-29) it was 26 and 36.4; in the data set with CD137 (EphA2 cell line PC-3) it was 53 and 44.5. Moreover, in data set [2] (3.6 mg/kg), the “T½ (terminal half-life)” value turned out to be 2.9 h. Also, the clearance in data set [2] (rat, in vivo, read-out: Clp (clearance)) stood at 7.4 mL/min/kg.
